Measurements reported in article PMC10303271, “Synthesis and Receptor Binding Studies of α5 GABAAR Selective Novel Imidazodiazepines Targeted for Psychiatric and Cognitive Disorders” (Molecules, 2023).

Experiments:
hERG K+ channel = target: T1, hERG K+ channel (Homo sapiens, UniProt Q12809); experiment: PDSP radioligand binding at hERG; conditions: human; at 10,000 nM; N = 5; read-out: Binding Affinity at hERG % Inhibition (Primary Binding)
T1 construct: purchased NIMH Psychoactive Drug Screening Program (PDSP)
T1 sequence (Q12809 whole entry): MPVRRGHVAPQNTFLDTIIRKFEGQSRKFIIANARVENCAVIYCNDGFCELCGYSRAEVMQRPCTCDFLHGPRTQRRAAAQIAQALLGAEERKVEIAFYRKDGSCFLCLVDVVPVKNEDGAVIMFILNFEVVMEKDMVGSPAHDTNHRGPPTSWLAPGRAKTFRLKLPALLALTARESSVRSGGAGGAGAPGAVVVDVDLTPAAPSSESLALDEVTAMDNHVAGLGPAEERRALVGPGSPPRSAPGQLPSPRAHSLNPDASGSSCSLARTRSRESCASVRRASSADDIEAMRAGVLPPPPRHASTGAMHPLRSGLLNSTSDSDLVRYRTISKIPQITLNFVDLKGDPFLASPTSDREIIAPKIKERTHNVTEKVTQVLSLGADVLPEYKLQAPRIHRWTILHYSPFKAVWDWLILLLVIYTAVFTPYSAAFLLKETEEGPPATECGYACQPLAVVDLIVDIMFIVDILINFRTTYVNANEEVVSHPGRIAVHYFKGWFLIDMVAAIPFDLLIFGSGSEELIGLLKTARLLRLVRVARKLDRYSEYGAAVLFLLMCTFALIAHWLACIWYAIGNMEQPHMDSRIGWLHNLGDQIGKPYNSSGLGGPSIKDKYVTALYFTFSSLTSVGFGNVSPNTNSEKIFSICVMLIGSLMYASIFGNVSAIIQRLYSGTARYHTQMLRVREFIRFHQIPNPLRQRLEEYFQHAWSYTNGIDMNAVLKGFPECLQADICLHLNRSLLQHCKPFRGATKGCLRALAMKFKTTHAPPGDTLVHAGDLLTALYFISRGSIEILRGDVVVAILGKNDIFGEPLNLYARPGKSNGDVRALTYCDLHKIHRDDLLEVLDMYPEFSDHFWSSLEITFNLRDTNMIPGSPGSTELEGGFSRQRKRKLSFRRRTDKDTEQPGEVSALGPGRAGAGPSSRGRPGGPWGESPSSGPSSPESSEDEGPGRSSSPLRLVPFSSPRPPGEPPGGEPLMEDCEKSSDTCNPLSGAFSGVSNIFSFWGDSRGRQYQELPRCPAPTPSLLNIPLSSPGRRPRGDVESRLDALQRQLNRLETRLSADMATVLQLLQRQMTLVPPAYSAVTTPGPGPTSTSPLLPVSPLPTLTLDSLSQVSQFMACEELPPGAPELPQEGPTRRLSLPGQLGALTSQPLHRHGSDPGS
Method: (§1) To determine if any off-target receptor-binding effects are present, all the novel ligands were sent to the National Institute of Mental Health (NIMH), Psychoactive Drug Screening Program (PDSP). The ligands were screened over a panel of 47 receptors, ion channels, and transporters to determine any other possible interactions with […]. The hERG-binding was also determined. […] No binding of the test compounds to calcium channels was observed. […] It is necessary to screen the compounds for hERG-binding during the early process of drug discovery. The unintentional binding of many drugs to hERG can cause blockade of hERG K+ channels in the heart, which can cause many side effects including cardiac arrhythmias and sudden death. […] All of the α5 imidazodiazepines were tested for hERG-binding.
(§2) The NIMH PDSP assay protocol book [https://kidbdev.med.unc.edu/databases/PDSP%20Protocols%20II%202013-03-28.pdf accessed on 23 April 2023]. describes the protocols for primary and secondary radio-ligand binding assays. These assays were carried out in a final volume of 125 µL per well in the appropriate binding buffer.
(§3) The binding of a ligand to a receptor, ion channel, or transporter was determined in the […] of 10 µM of the appropriate reference compound. […] Plates were incubated in the dark for 90 min at rt, and the reactions were stopped by vacuum filtration onto 0.3% polyethyleneimine (PEI) soaked 96-well filter mats using a 96-well Filtermateharvester. This was followed by three washes with cold PBS buffer. Radioactivity was then counted on a Microbeta counter. Nonlinear regression was used to analyze the data with N = 6 replicates.

DAT = target: T2, DAT (Homo sapiens, UniProt Q01959); experiment: PDSP primary binding DAT; conditions: 1.5 h, primary binding, 10,000 nM; last figure of the line = mean of the 4 before it; some tables list DAT twice; read-out: DAT, PDSP raw data, mean
T2 construct: purchased NIMH Psychoactive Drug Screening Program (PDSP)
T2 sequence (Q01959 whole entry): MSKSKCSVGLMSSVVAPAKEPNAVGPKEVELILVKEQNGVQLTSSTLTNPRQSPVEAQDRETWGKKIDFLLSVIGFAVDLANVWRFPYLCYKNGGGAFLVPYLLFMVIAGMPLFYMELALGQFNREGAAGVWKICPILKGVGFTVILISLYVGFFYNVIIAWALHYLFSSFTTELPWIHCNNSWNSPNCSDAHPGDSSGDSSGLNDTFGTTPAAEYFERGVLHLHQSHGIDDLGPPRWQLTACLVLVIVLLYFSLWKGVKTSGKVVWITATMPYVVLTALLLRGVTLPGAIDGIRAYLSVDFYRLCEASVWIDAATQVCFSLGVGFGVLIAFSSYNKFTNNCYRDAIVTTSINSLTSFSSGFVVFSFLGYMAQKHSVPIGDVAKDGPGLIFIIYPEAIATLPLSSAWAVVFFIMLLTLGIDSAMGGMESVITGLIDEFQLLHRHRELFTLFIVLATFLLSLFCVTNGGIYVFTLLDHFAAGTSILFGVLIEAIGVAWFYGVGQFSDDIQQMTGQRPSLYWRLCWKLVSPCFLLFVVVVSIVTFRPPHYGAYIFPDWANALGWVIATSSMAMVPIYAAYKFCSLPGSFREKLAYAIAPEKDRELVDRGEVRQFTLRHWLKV
Method: as §1, §2, §3

M2 = target: T3, M2 (Homo sapiens, UniProt P08172); experiment: PDSP primary binding M2; conditions: primary binding, 10,000 nM; last figure of the line = mean of the 4 before it; read-out: M2, PDSP raw data, mean
T3 construct: purchased NIMH Psychoactive Drug Screening Program (PDSP)
T3 sequence (P08172 1-466): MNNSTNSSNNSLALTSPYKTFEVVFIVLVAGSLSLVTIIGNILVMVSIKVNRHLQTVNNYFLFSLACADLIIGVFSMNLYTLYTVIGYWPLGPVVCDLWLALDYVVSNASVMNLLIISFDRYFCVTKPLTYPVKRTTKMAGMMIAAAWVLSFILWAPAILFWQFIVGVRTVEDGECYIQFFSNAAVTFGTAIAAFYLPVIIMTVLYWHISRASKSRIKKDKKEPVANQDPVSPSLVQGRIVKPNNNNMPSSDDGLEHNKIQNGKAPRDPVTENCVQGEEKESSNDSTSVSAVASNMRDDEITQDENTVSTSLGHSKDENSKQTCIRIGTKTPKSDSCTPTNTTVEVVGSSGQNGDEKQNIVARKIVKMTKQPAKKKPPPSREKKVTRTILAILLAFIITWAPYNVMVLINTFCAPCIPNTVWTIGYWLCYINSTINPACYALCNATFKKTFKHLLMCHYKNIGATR
Method: as §1, §2, §3

NOP = target: T4, NOP (Homo sapiens, UniProt P41146); experiment: PDSP primary binding NOP; conditions: primary binding, 10,000 nM; last figure of the line = mean of the 4 before it
T4 construct: purchased NIMH Psychoactive Drug Screening Program (PDSP)
T4 sequence (P41146 whole entry): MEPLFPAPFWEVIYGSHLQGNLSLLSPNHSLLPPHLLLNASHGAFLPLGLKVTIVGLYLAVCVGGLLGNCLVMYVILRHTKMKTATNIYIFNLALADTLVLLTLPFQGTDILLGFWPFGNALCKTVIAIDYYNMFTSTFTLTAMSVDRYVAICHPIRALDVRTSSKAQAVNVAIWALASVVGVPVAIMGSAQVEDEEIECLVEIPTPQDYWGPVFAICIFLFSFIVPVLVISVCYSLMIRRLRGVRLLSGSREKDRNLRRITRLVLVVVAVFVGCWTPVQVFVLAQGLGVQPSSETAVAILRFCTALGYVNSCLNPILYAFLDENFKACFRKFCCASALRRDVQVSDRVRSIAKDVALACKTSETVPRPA
Method: as §1, §2, §3

OT = target: T5, OT (Homo sapiens, UniProt P30559); experiment: PDSP primary binding OT (Oxytocin); conditions: primary binding, 10,000 nM; last figure of the line = mean of the 4 before it; some tables list it twice; read-out: OT (also Oxytocin), PDSP raw data, mean
T5 construct: purchased NIMH Psychoactive Drug Screening Program (PDSP)
T5 sequence (P30559 1-389): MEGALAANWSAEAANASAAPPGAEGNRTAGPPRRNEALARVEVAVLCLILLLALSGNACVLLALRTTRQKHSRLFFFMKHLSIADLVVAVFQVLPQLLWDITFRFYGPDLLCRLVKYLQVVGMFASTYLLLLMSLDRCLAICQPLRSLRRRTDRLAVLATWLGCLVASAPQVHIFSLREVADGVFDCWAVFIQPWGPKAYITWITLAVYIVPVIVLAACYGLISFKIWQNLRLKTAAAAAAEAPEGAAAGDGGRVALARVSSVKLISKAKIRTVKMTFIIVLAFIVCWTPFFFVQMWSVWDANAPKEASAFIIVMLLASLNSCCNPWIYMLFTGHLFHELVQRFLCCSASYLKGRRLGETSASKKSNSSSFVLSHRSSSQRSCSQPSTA
Method: as §1, §2, §3

AT2 = target: T6, AT2 (Homo sapiens, UniProt P50052); experiment: PDSP primary binding AT2; conditions: primary binding, 10,000 nM; last figure of the line = mean of the 4 before it
T6 construct: purchased NIMH Psychoactive Drug Screening Program (PDSP)
T6 sequence (P50052 whole entry): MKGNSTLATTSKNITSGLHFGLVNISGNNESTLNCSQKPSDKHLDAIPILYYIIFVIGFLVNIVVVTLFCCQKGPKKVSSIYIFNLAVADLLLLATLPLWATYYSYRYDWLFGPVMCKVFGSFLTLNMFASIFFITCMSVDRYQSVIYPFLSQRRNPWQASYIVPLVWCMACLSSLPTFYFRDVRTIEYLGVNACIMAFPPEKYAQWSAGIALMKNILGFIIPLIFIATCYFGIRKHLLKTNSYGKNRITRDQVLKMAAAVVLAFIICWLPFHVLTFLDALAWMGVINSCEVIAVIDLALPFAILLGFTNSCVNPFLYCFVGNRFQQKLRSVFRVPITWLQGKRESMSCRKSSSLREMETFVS
Method: as §1
The NIMH PDSP assay protocol book [https://kidbdev.med.unc.edu/databases/PDSP%20Protocols%20II%202013-03-28.pdf accessed on 23 April 2023]. describes the protocols for primary and secondary radio-ligand binding assays. […]
The binding of a ligand to a receptor, ion channel, or transporter was determined in the […] of 10 µM of the appropriate reference compound. Nonspecific binding was also determined in the absence and presence of 10 µM of the appropriate reference compound. […] Radioactivity was then counted on a Microbeta counter. […]

SERT = target: T7, SERT (Homo sapiens, UniProt P31645); experiment: PDSP primary binding SERT; conditions: primary binding, 10,000 nM; last figure of the line = mean of the 4 before it; some tables list SERT twice; read-out: SERT, PDSP raw data, mean
T7 construct: purchased NIMH Psychoactive Drug Screening Program (PDSP)
T7 sequence (P31645 whole entry): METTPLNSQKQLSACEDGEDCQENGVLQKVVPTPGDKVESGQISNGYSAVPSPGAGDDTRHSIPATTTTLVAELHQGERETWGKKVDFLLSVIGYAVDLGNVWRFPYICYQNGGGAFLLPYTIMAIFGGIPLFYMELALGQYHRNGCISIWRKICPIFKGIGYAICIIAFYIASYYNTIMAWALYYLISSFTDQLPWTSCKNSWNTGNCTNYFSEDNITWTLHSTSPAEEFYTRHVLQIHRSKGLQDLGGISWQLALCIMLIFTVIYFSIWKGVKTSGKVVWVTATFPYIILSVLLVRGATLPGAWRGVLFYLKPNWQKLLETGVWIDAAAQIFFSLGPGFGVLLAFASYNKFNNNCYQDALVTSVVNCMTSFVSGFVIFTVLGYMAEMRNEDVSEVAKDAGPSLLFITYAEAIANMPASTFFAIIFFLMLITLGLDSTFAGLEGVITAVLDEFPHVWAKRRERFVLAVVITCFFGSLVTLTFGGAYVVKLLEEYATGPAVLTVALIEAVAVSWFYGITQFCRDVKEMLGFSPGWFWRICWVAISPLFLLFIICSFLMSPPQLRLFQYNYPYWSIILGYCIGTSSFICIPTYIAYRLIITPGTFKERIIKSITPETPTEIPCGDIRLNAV
Method: as §1, §2, §3

GABAA = experiment: PDSP primary binding GABAA; conditions: primary binding, 10,000 nM; last figure of the line = mean of the 4 before it; some tables list it twice
Method: as §1, §2, §3

Row | SMILES | inhibition at 90 min, 10000 nM (hERG K+ channel) [%] | inhibition at 10 µM (DAT) [%] | inhibition at 10 µM (M2) [%] | NOP, PDSP raw data, mean (NOP) [%] | inhibition at 10 µM (OT) [%] | AT2, PDSP raw data, mean (AT2) [%] | inhibition at 10 µM (SERT) [%] | GABAA, PDSP raw data, mean (GABAA) [%]
1 | CC(C)c1noc(-c2ncn3c2[C@@H](C)N=C(c2ccccc2F)c2cc(Cl)ccc2-3)n1 [Compound 37, (R)-5-(8-Chloro-6-(2′-fluorophenyl)-4-methyl-4H-benzo[f]imidazo[1,5-a][1,4]diazepin-3-yl)-3-isopropyl-1,2,4-oxadiazole] | 4.21 ± 10.8 | 37.5 | -19.3 | -10.12 | 10.5 | 12.03 |  | 
2 | C[C@H]1N=C(c2ccccc2F)c2cc(Cl)ccc2-n2cnc(-c3nc(C4CC4)no3)c21 [Compound 38, (R)-5-(8-Chloro-6-(2′-fluorophenyl)-4-methyl-4H-benzo[f]imidazo[1,5-a][1,4]diazepin-3-yl)-3-cyclopropyl-1,2,4-oxadiazole] | 1.86 ± 25.6 | 40 | -9.65 | -17 |  | 24.14 | 13.1 | 
3 | C#Cc1ccc2c(c1)C(c1ccccc1Cl)=N[C@H](C)c1c(C(=O)NC)ncn1-2 [Compound 21, (R)-6-(2′-Chlorophenyl)-8-ethynyl-N,4-dimethyl-4H-benzo[f]imidazo[1,5-a][1,4]diazepine-3-carboxamide] | -5.73 ± 11.1 |  | 0.22 | -0.1 | -0.63 |  | 9.24 | 12.76
4 | C#Cc1ccc2c(c1)C(c1ccccc1Cl)=N[C@H](C)c1c(C(=O)N(C)CC)ncn1-2 [Compound 29] | -1.55 ± 10.1 |  | 3.03 |  | 41.8 |  | 6.07 | 25.77
5 | CCc1noc(-c2ncn3c2[C@@H](C)N=C(c2ccccc2F)c2cc(C4CC4)ccc2-3)n1 [Compound 46, (R)-5-(8-Cyclopropyl-6-(2′-fluorophenyl)-4-methyl-4H-benzo[f]imidazo[1,5-a][1,4]diazepin-3-yl)-3-ethyl-1,2,4-oxadiazole] | 4.34 ± 3.92 | 22 | 5.73 | 7.5 | 11.4 |  | -3.28 | 19.52
6 | CCc1noc(-c2ncn3c2CN=C(c2ccccc2F)c2cc(C4CC4)ccc2-3)n1 [Compound 44, 5-(8-Cyclopropyl-6-(2′-fluorophenyl)-4H-benzo[f]imidazo[1,5-a][1,4]diazepin-3-yl)-3-ethyl-1,2,4-oxadiazole] | 33.2 ± 12.6 | 37.4 | -13.6 |  | 15.4 |  | 7.2 | 11.92
7 | CCc1noc(-c2ncn3c2[C@@H](C)N=C(c2ccccc2F)c2cc(Cl)ccc2-3)n1 [Compound 36, (R)-5-(8-Chloro-6-(2′-fluorophenyl)-4-methyl-4H-benzo[f]imidazo[1,5-a][1,4]diazepin-3-yl)-3-ethyl-1,2,4-oxadiazole] |  | 11 | -3.62 |  | 14.7 |  | 3.09 | 13.12
8 | CCc1noc(-c2ncn3c2[C@@H](C)N=C(c2ccccc2F)c2cc(-c4ccccc4)ccc2-3)n1 [Compound 35, (R)-3-Ethyl-5-(6-(2′-fluorophenyl)-4-methyl-8-phenyl-4H-benzo[f]imidazo[1,5-a][1,4]diazepin-3-yl)-1,2,4-oxadiazole] | 37.3 ± 5.97 | 49.4 | -7.95 |  | 6.27 |  | 17.2 | 16.02
9 | C#Cc1ccc2c(c1)C(c1ccccc1F)=N[C@H](C)c1c(C(=S)N(C)C)ncn1-2 [Compound 33, (R)-8-Ethynyl-6-(2′-fluorophenyl)-N,N,4-trimethyl-4H-benzo[f]imidazo[1,5-a][1,4]diazepine-3-carbothioamide] | -4.4 ± 4.52 | 29.7 | 15.4 |  |  |  | -9.27 | -4.01
10 | C#Cc1ccc2c(c1)C(c1ccccn1)=N[C@@H](C)c1c(C(=O)NC)ncn1-2 [Compound 23, (S)-8-Ethynyl-N,4-dimethyl-6-(pyridin-2′-yl)-4H-benzo[f]imidazo[1,5-a][1,4]diazepine-3-carboxamide] | -4.24 ± 3.47 |  | -6.16 |  | 47.4 |  | -7.1 | 23.24
11 | C[C@H]1N=C(c2ccccc2F)c2cc(-c3ccccc3)ccc2-n2cnc(C(=O)N(C)C)c21 [Compound 5, (R)-6-(2′-Fluorophenyl)-N,N,4-trimethyl-8-phenyl-4H-benzo[f]imidazo[1,5-a][1,4]diazepine-3-carboxamide] | -0.48 ± 4.52 | 29.7 | 15.4 |  |  |  | -9.27 | -4.01
12 | C#Cc1ccc2c(c1)C(c1ccccn1)=N[C@@H](C)c1c(C(=O)N(C)C)ncn1-2 [Compound 31, (S)-8-Ethynyl-N,N,4-trimethyl-6-(pyridin-2′-yl)-4H-benzo[f]imidazo[1,5-a][1,4]diazepine-3-carboxamide] | 0.95 ± 2.21 | 15.5 | 3.03 | -14.49 | 23.7 |  | 4.04 | 9.39
